Reference: the kinase profiling compilation of Christmann-Franck et al. (2016)

target: SGK1 (human) (UniProt O00141); test: Flashplate
Sequence (O00141 whole entry, looked up): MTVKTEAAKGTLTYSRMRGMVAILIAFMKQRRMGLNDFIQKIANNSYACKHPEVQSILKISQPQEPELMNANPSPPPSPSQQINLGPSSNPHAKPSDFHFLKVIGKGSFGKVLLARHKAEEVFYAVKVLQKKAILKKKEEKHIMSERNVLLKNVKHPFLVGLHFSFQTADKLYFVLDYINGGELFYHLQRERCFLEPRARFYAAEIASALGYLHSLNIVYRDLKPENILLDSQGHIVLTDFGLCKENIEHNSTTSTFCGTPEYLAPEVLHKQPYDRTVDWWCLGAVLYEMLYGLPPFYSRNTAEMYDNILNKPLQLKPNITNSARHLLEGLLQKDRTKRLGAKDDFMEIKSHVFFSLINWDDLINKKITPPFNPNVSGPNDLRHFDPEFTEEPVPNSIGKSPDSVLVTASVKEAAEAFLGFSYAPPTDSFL

Ki	SMILES
> 10 µM	CN(C)CCCOc1cc2c(c(-c3ccc(Nc4nc5ccccc5o4)cc3)c1)CNC2=O
> 10 µM	CC(=O)N(c1ccncc1)c1c(N[C@H](C)C(C)(C)C)c(=O)c1=O
> 10 µM	O=c1c2c([nH]c3cc(-c4ccco4)nn13)CSC2
0.0794 µM	Cc1n[nH]c2ccc(-c3cncc(OC[C@@H](N)Cc4ccc(Cl)c(Cl)c4)c3)cc12
> 10 µM	Cc1cccc(-c2[nH]c(-c3ccnc(N)n3)cc2C(N)=O)c1C
2.51 µM	Nc1n[nH]c2nnc(-c3ccccc3)c(-c3ccccc3)c12
6.31 µM	NC(=O)c1cccc2[nH]c(-c3ccncc3)nc12
> 10 µM	CNc1ncnc2c1N=C(c1ccc(NC(=O)Nc3cccc(C(F)(F)F)c3)cc1)CCN2
> 10 µM	CCOC(=O)C1=c2s/c(=C/c3ccco3)c(=O)n2C(N)=C(C#N)C1c1ccco1 (stereo unspecified)
> 10 µM	N#Cc1c(O)[nH]c(=O)c2c(=N)oc3ccc(Cl)cc3c12
> 10 µM	C#Cc1cc2c(cc1OC)-c1[nH]nc(-c3ccc(C#N)nc3)c1C2
3.16 µM	N[C@@H](Cc1c[nH]c2ccccc12)C(=O)Nc1cncc(/C=C/c2ccncc2)c1
7.94 µM	O=C(Nc1cnc2[nH]cc(-c3ccccc3)c2c1)c1cccc(F)c1F
> 10 µM	Cc1cc2cc(-c3csc4c(-c5cccc(S(C)(=O)=O)c5)cnc(N)c34)ccc2[nH]1
> 10 µM	O=C(c1cc(-c2ccc3[nH]ncc3c2)on1)N1CCCCC1
2 µM	O=c1c(NCc2ccc(Cl)cc2)c(Nc2ccncc2)c1=O
> 10 µM	CC1=NN(c2ccc(Cl)c(Cl)c2)C(=O)/C1=C\c1c(C)c(C#N)c2nc3ccccc3n2c1O
> 10 µM	O=C1Nc2ccccc2Nc2ccccc21
3.98 µM	OC1CCN(c2ncnc3[nH]cc(-c4ccccc4)c23)CC1
0.501 µM	OCCNc1cc2cc(-c3ccsc3)ccc2cn1
> 10 µM	COc1cc2cnc3c(c2cc1OC)C(=O)NC3=O

Ki	SMILES
2 µM	NC(=O)c1cc2c(Oc3ccc(Br)cc3)cncc2s1
> 10 µM	Cn1nc(C(F)(F)F)c2c(=O)c3cc(Cl)ccc3n(O)c21
> 10 µM	CCOc1nc(NC(=O)Cc2cc(OC)c(S(C)(=O)=O)cc2OC)cc(N)c1C#N
> 10 µM	O=c1c(NCCc2ccc(Oc3ccccc3)cc2)c(Nc2ccncc2)c1=O
> 10 µM	Cc1ccc2c(c1)NC(=O)c1ccccc1N2
> 10 µM	Clc1ccc(CNc2ccc3nnc(-c4ccccc4)n3n2)cc1
1.58 µM	Brc1cnc2[nH]cc(-c3ccccc3)c2c1
0.631 µM	Oc1ccc(-c2n[nH]c(Nc3cccc(Cl)c3)c2-c2ccc(O)cc2)cc1
7.94 µM	O=c1[nH]cc(I)c2nc(-c3cccc(Cl)c3)cn12
> 10 µM	N[C@@H]1[C@H]2CN(c3nc4c(cc3F)c(=O)c(C(=O)O)cn4-c3ccc(F)cc3F)C[C@@H]12
> 10 µM	Nc1nc2ccc(-c3c(-c4ccc(F)cc4)nc4sccn34)cc2n1CC1CC1
6.31 µM	Cc1cc(Cl)ccc1NC(=S)NNC(=O)C(O)(c1ccccc1)c1ccccc1
> 10 µM	Cc1cccc(NC(=O)Nc2ccc(-c3csc4ncnc(N)c34)cc2)c1
0.2 µM	COc1cccc([C@@H](C)NC(=O)c2ccc(-c3ccncc3C)cc2)c1
3.98 µM	NC(=O)c1cc2c(-c3ccc(F)cc3)cncc2s1
7.94 µM	O=C(Nc1ccc2[nH]ncc2c1)c1ccc(Cl)cc1
> 10 µM	O=C(N[C@H](CO)Cc1ccccc1)c1ccc(-c2ccncc2)cc1F
> 6.31 µM	CCN(CCCOc1ccc2c(Nc3cc(CC(=O)Nc4cccc(F)c4)[nH]n3)ncnc2c1)CCOP(=O)(O)O
> 10 µM	Cc1ccc(-c2nn(C(C)(C)C)c3ncnc(N)c23)cc1
> 10 µM	O=C(NCc1ccc(Cl)cc1)Nc1cccc2[nH]ncc12
0.316 µM	Oc1cc(O)cc(/C=C/c2ccc(O)c(O)c2)c1

SMILES	Ki
COc1ccc2c(c1)/C(=C/c1cnc[nH]1)C(O)=N2	1 µM
COc1cc2c(cc1F)C(c1ccccc1Cl)=Nc1c(n[nH]c1C)N2	7.94 µM
N[C@H](COc1cncc(-c2cc3ccncc3s2)c1)Cc1c[nH]c2ccccc12	0.0501 µM
N[C@H](COc1cncc(-c2cc3cnccc3s2)c1)Cc1c[nH]c2ccccc12	1 µM
